Measured values taken from PubChem BioAssay AID651885 (Broad Institute, 2012).

Assays:
[1] = test system: BESM host cells (bovine embryo skeletal muscle), cytotoxicity; experiment: anti-trypanosomal activity in BESM host cells – imaging, CA-I/72 strain, bovine embryo skeletal muscle, dry powder, dose response (AID 651885); conditions: T. cruzi CA-I/72 amastigotes in BESM cells, imaging, 72 h; measured here: host BESM cell toxicity
[2] = test system: T. cruzi CA-I/72 amastigotes in BESM cells, imaging, 72 h; experiment: as above; conditions: for IC90: measured here: parasite IC90, test 4; for IC99: measured here: parasite IC99, test 4

Row | Compound | IC50 [1] | also measured
1 | CC(C)N1C[C@H](C)[C@@H](CN(C)Cc2ccc(Oc3ccccc3)cc2)Oc2c(NC(=O)c3ccncc3)cccc2C1=O | > 20 µM | 
2 | C[C@@H]1CN([C@@H](C)CO)C(=O)c2cc(-c3cncnc3)cnc2O[C@H]1CN(C)Cc1ccc(Oc2ccccc2)cc1 | > 20 µM | 
3 | C[C@H]1CN([C@@H](C)CO)C(=O)c2cccc(NC(=O)c3ccncc3)c2O[C@@H]1CN(C)Cc1ccc(C(=O)O)cc1 | > 20 µM | 
4 | C[C@H]1CN([C@@H](C)CO)C(=O)c2cccc(NC(=O)c3ccncc3)c2O[C@@H]1CN(C)Cc1ccc(Oc2ccccc2)cc1 | > 20 µM | 
5 | CNC[C@H]1Oc2c(NC(=O)c3ccccc3)cccc2C(=O)N(C(C)C)C[C@@H]1C | > 20 µM | 
6 | C[C@@H]1CN([C@H](C)CO)C(=O)c2cccc(NC(=O)c3ccncc3)c2O[C@H]1CN(C)Cc1ccc(C(F)(F)F)cc1 | > 20 µM | IC90 [2]: 0.472 µM; IC99 [2]: 4.75 µM
7 | C[C@H]1CN([C@@H](C)CO)C(=O)c2cccc(NC(=O)c3ccncc3)c2O[C@@H]1CN(C)Cc1ccncc1 | > 20 µM | 
8 | CC(C)N1C[C@H](C)[C@@H](CN(C)C(=O)OC(C)(C)C)Oc2c(C(=O)Nc3ccncc3)cccc2C1=O | > 20 µM | 
9 | C[C@H]1CN([C@@H](C)CO)C(=O)c2cccc(NC(=O)c3ccncc3)c2O[C@@H]1CN(C)Cc1ccccc1 | > 20 µM | 
10 | C[C@H]1CN([C@@H](C)CO)C(=O)c2cccc(NC(=O)c3ccncc3)c2O[C@@H]1CN(C)Cc1ccc(C(F)(F)F)cc1 | > 20 µM | 
11 | C[C@@H]1CN([C@H](C)CO)C(=O)c2cccc(NC(=O)c3ccncc3)c2O[C@H]1CN(C)Cc1ccc(Oc2ccccc2)cc1 | > 20 µM | IC90 [2]: 0.45 µM; IC99 [2]: 4.95 µM
12 | C[C@H]1CN([C@@H](C)CO)C(=O)c2cccc(NC(=O)c3ccncc3)c2O[C@@H]1CN(C)Cc1ccc(C(=O)Nc2ccccc2N)cc1 | > 20 µM | 
13 | COc1ccc(CCN(C)C(=O)C2CCCN(Cc3ccc(OC)c(OC)c3)C2)cc1OC (stereo not drawn) | > 20 µM | 
14 | C[C@H]1CN([C@@H](C)CO)C(=O)c2cccc(NC(=O)c3ccncc3)c2O[C@@H]1CN(C)Cc1ccc(Cl)c(Cl)c1 | > 20 µM | 
15 | C[C@@H]1CN([C@H](C)CO)C(=O)c2cccc(NC(=O)c3ccncc3)c2O[C@H]1CN(C)Cc1ccc2c(c1)OCO2 | > 20 µM | 
16 | C[C@@H]1CN([C@@H](C)CO)C(=O)c2cccc(NC(=O)c3ccncc3)c2O[C@H]1CN(C)Cc1ccccc1Cl | > 20 µM | 
17 | CC(C)N(C)C(=O)c1cccc(NC(=O)c2ccncc2)c1OCCCN(C)Cc1ccc(Cl)cc1 | > 20 µM | 
18 | C[C@@H]1CN([C@@H](C)CO)C(=O)c2cccc(NC(=O)c3ccncc3)c2O[C@H]1CN(C)Cc1ccc(-c2ccccc2)cc1 | > 20 µM | 
19 | C[C@@H]1CN([C@@H](C)CO)C(=O)c2cccc(NC(=O)c3ccncc3)c2O[C@H]1CN(C)Cc1ccc(Cl)cc1 | > 20 µM | 
20 | CC(C)N1C[C@H](C)[C@@H](CN(C)Cc2ccc(Oc3ccccc3)cc2)Oc2c(NC(=O)c3ccccc3)cccc2C1=O | 16.1 µM | 
21 | CC(C)N1C[C@H](C)[C@@H](CN(C)Cc2cccc(Cl)c2)Oc2c(NC(=O)c3ccncc3)cccc2C1=O | 19.1 µM | 
22 | C[C@@H]1CN([C@@H](C)CO)C(=O)c2cccc(NC(=O)c3ccncc3)c2O[C@H]1CN(C)Cc1ccc(C(=O)O)cc1 | > 20 µM | 
23 | C[C@@H]1CN([C@@H](C)CO)C(=O)c2cc(-c3cccnc3)cnc2O[C@H]1CN(C)Cc1ccc(Oc2ccccc2)cc1 | > 20 µM | 
24 | C[C@@H]1CN([C@@H](C)CO)C(=O)c2cccc(NC(=O)c3ccncc3)c2O[C@H]1CN(C)Cc1ccc2c(c1)OCO2 | > 20 µM | IC90 [2]: 0.921 µM; IC99 [2]: 7.92 µM
25 | CC(C)N1C[C@H](C)[C@@H](CN(C)Cc2ccccc2Cl)Oc2c(NC(=O)c3ccncc3)cccc2C1=O | > 20 µM | 
26 | C[C@H]1CN([C@@H](C)CO)C(=O)c2cccc(NC(=O)c3ccncc3)c2O[C@H]1CN(C)Cc1ccc(Oc2ccccc2)cc1 | > 20 µM | 

Row | Compound | IC50 [1] | also measured
27 | C[C@@H]1CN([C@@H](C)CO)C(=O)c2cccc(NC(=O)c3ccncc3)c2O[C@H]1CN(C)C | > 20 µM | 
28 | C[C@H](CO)N1C[C@H](C)[C@@H](CN(C)Cc2ccc(Oc3ccccc3)cc2)Oc2c(NC(=O)c3ccncc3)cccc2C1=O | > 20 µM | 
29 | C[C@@H]1CN([C@@H](C)CO)C(=O)c2cccc(NC(=O)c3ccncc3)c2O[C@H]1CN(C)Cc1ccc(Oc2ccccc2)cc1 | > 20 µM | IC50 [2]: 0.011 µM; IC90 [2]: 0.108 µM; IC99 [2]: 1.19 µM
30 | CCCn1ncc(CN2CCCC(C(=O)c3cccc(OC(C)C)c3)C2)c1C (stereo not drawn) | > 20 µM | 
31 | COc1ccc(CN(C)C[C@@H]2Oc3c(NC(=O)c4ccncc4)cccc3C(=O)N([C@@H](C)CO)C[C@H]2C)cc1 | > 20 µM | IC90 [2]: 1.58 µM; IC99 [2]: 15.9 µM
32 | CC(C)N1C[C@H](C)[C@@H](CN(C)C(=O)OC(C)(C)C)Oc2c(NC(=O)c3cccnc3)cccc2C1=O | > 20 µM | 
33 | CC(C)N1C[C@H](C)[C@@H](CN(C)Cc2ccccc2)Oc2c(NC(=O)c3ccncc3)cccc2C1=O | > 20 µM | 
34 | C[C@@H]1CN([C@@H](C)CO)C(=O)c2cccc(NC(=O)c3ccncc3)c2O[C@H]1CN(C)CC1CCCCC1 | > 20 µM | IC90 [2]: 6.03 µM; IC99 [2]: 63.4 µM
35 | C[C@@H]1CN([C@H](C)CO)C(=O)c2cccc(NC(=O)c3ccncc3)c2O[C@@H]1CN(C)Cc1ccc(Oc2ccccc2)cc1 | > 20 µM | IC90 [2]: 30.7 µM; IC99 [2]: 238 µM
36 | C[C@H](CO)N1C[C@H](C)[C@H](CN(C)Cc2ccc(Oc3ccccc3)cc2)Oc2c(NC(=O)c3ccncc3)cccc2C1=O | > 20 µM | 
37 | C[C@@H]1CN([C@H](C)CO)C(=O)c2cccc(NC(=O)c3ccncc3)c2O[C@H]1CN(C)Cc1ccccc1 | > 20 µM | 
38 | CC(C)N1C[C@H](C)[C@@H](CN(C)C(=O)OC(C)(C)C)Oc2c(C#N)cccc2C1=O | > 20 µM | 
39 | Cc1cc(C(=O)Nc2cccc3c2O[C@@H](CN(C)Cc2ccc(Oc4ccccc4)cc2)[C@H](C)CN([C@@H](C)CO)C3=O)n(C)n1 | > 20 µM | 
40 | CC(C)N1C[C@H](C)[C@@H](CN(C)C(=O)OC(C)(C)C)Oc2c(C(=O)O)cccc2C1=O | > 20 µM | 
41 | C[C@@H]1CN([C@@H](C)CO)C(=O)c2cccc(NC(=O)c3ccncc3)c2O[C@@H]1CN(C)Cc1ccc(Oc2ccccc2)cc1 | > 20 µM | 
42 | C[C@@H]1CN([C@H](C)CO)C(=O)c2cccc(NC(=O)c3ccncc3)c2O[C@H]1CN(C)CC1CCCCC1 | > 20 µM | IC90 [2]: 28.5 µM; IC99 [2]: 158 µM
43 | C[C@@H]1CN([C@@H](C)CO)C(=O)c2cc(-c3ccncc3)cnc2O[C@H]1CN(C)Cc1ccc(Oc2ccccc2)cc1 | 5 µM | 
44 | C[C@@H]1CN([C@@H](C)CO)C(=O)c2cccc(NC(=O)c3ccncc3)c2O[C@H]1CN(C)Cc1cccc(Cl)c1 | > 20 µM | 
45 | CNC[C@@H]1Oc2c(NC(=O)c3ccncc3)cccc2C(=O)N(C(C)C)C[C@H]1C | > 20 µM | 
46 | COc1ccc(CN(C)C[C@H]2Oc3c(NC(=O)c4ccncc4)cccc3C(=O)N([C@@H](C)CO)C[C@@H]2C)cc1 | 15.3 µM | 
47 | CC(C)N1C[C@H](C)[C@@H](CN(C)C(=O)OC(C)(C)C)Oc2c(NC(=O)c3ccccc3)cccc2C1=O | > 20 µM | 
48 | CC(C)N1C[C@H](C)[C@@H](CN(C)C(=O)OC(C)(C)C)Oc2c(NC(=O)c3ccncc3)cccc2C1=O | > 20 µM | 
49 | C[C@@H]1CN([C@@H](C)CO)C(=O)c2cccc(NC(=O)c3cnccn3)c2O[C@H]1CN(C)Cc1ccc(Oc2ccccc2)cc1 | > 20 µM | 
50 | CC(C)N1C[C@H](C)[C@@H](CN(C)Cc2ccc(Cl)cc2)Oc2c(NC(=O)c3ccncc3)cccc2C1=O | > 20 µM | 
51 | C[C@@H]1CN([C@@H](C)CO)C(=O)c2cc(Br)cnc2O[C@H]1CN(C)Cc1ccc2c(c1)OCO2 | > 20 µM | 
